Test results published in article PMC10893061, “Novel 2,5-Diketopiperazines with In Vitro Activities against Protozoan Parasites of Tropical Diseases” (Pharmaceuticals, 2024).
≈ marks a conversion by molar mass, not a printed value. Like-named read-outs stand apart in the source and are kept apart here.

Columns and labels:
[1] = tested on: Leishmania infantum (MHOM/BR/1974/PP75) in THP-1 macrophages; assay: Anti-Leishmania infantum activity assay (infected THP-1 macrophages, red fluorescence); format: cell-based; settings: for Status: L. infantum, activity status from IC50 and SI; for IC50: Leishmania infantum, L. infantum in THP-1 macrophages, 72 h
Method: (§1) Their half-maximum cytotoxic concentrations (CC50) and their selectivity indices (SI), obtained as the ratio of the cytotoxic concentration against the bioactive concentration are shown in Table 2. Theoretically, the higher the SI value, the greater the effectiveness for the target and the lower the toxicity of the compound, characterizing a potentially safe and selective drug.
Cells derived from the human monocytic strain THP-1 were cultured in complete Rowell Park Memorial Institute (RPMI)-1640 medium (supplemented with 10% fetal bovine serum, 100 U/mL penicillin, and 100 μg/mL streptomycin). Monocytes were differentiated into macrophages by the addition of 20 ng/mL phorbol myristate acetate (PMA). […] The IC50 values were determined by non-linear regression using a variable slope model (log[concentration] vs. growth inhibition) with the GraphPad Prism v8.2.0 (Boston, MA, USA) software. Controls with uninfected cells, untreated infected cells, infected cells treated with amphotericin B at 0.25 μM (positive control) or DMSO 1% were used. Quadruplicates were run in the same plate, and the experiments were repeated at least once.

[2] = Cytotoxicity on THP-1 derived macrophages (AlamarBlue); format: cell-based; settings: human, THP-1 cells differentiated into macrophages, THP-1 macrophages
Method: For the cytotoxicity assay, human monocytic THP-1 cells were differentiated into macrophages in 96-well microtiter plates for 72 h, as described above. The medium was then replaced, and the cells were exposed to the compounds at increasing concentrations starting at IC50 value for each Leishmania spp. line. After 72 h of incubation with the compounds, AlamarBlue™ was added and the absorbance at 570 and 600 nm was measured after 4 h. Controls with untreated and DMSO 1%-treated cells were run in parallel. The results were expressed as the percentual difference in the reduction between treated and untreated cells. The compound concentration that inhibits 50% of the THP-1 cell viability (CC50) was determined. The CC50 values were determined by non-linear regression using a variable slope model (log(concentration) vs. growth inhibition) with the GraphPad Prism v8.2.0 (CA, USA) software. Triplicates were run in the same plate and the experiments were repeated at least once.

[3] = tested on: T. cruzi Tulahuen strain in L929 cells; assay: Anti-Trypanosoma cruzi activity assay (infected L929 cells, beta-galactosidase reporter); format: cell-based; settings: for Status: T. cruzi, activity status from IC50 and SI; for IC50: Trypanosoma cruzi, T. cruzi Tulahuen in L929 cells, 96 h
Method: as §1
The in vitro anti-T. cruzi activity was evaluated on L929 cells (mouse fibroblasts) infected with Tulahuen strain of the parasite expressing the Escherichia coli β-galactosidase as reporter gene according to the method described previously. Briefly, four thousand L929 cells were added to each well of a 96-well microtiter plate. After an overnight incubation, a 10 fold excess of trypomastigotes were added to the cells, incubated for 2 h, then replaced with 200 μL of fresh medium and incubated for additional 48 h to establish the infection. For IC50 determination, the cells were exposed to each synthesized compound at serial decreasing dilutions and the plate was incubated for 96 h. Afterwards, 50 μL of 500 μM chlorophenol red beta-D-galactopyranoside (CPRG) in 0.5% Nonidet P40 was added to each well, and the plate incubated for 16 to 20 h, after which the absorbance at 570 nm was measured. Controls with uninfected cells, untreated infected cells, infected cells treated with benznidazole at 3.8 μM (positive control) or 1% DMSO were used. The results were expressed as the percentage of T. cruzi growth inhibition in compound tested cells as compared to the infected cells and untreated cells. The IC50 values were calculated by linear interpolation. Quadruplicates were run in the same plate, and the experiments were repeated at least once.
(§2) IC50 over T. cruzi and L929 cells were determined by linear interpolation and the selectivity index (SI) was calculated by the ratio of CC50 L929 cells/ IC50 T. cruzi.

[4] = Cytotoxicity on L929 cells (AlamarBlue); format: cell-based; settings: mouse, L929 mouse fibroblast cells
Method: The medium was then replaced, and the cells were exposed to compounds at increasing concentrations starting at IC50 value for T. cruzi. After 96 h of incubation with the compounds, AlamarBlue^TM was added and the absorbance at 570 and 600 nm was measured after 4–6 h. Controls with untreated and DMSO 1%-treated cells were run in parallel. The results were expressed as the percent difference in the reduction between treated and untreated cells. The compound concentration that inhibits 50% of the L929 cell viability (CC50) was determined. Quadruplicates were run in the same plate and the experiments were repeated at least once.
as §2

[5] = tested on: P. falciparum chloroquine-resistant and mefloquine-sensitive W2 clone; assay: Anti-Plasmodium falciparum activity assay (SYBR, erythrocytic asexual stages); format: cell-based; settings: for Status: P. falciparum, activity status from IC50 and SI
Method: In vitro assay with P. falciparum culture were performed as described previously. […] The activity was measured using the SYBR assay with the parasite suspension (0.5% parasitemia and 2% hematocrit) with minor modifications. The test compounds, in serial dilutions, were incubated in “U” bottom 96-wells plates. After 48 h at 37 °C, the culture supernatant was removed and replaced by 100 µL of lysis buffer solution [Tris (20 mM; pH 7.5), EDTA (5 mM), saponin (0.008%; wt/vol), and Triton X 100 (0.08%; vol/vol)] followed by addition of 0.2 µL/mL SYBR Safe (Sigma-Aldrich, Carlsbad, CA, USA). The plate content was transferred to a flat bottom plate and incubated in the dark for 30 min. The plate was read in a fluorometer (Synergy H4 Hibrid Reader, Biotek) with excitation at 485 nm and 535 nm of emission. In all tests, the compound activities were expressed by the 50% inhibitory concentration of the parasite growth (IC50) when compared to the drug-free controls and estimated using the curve-fitting software Origin 8.0 (OriginLab Corporation, Northampton, MA, USA).

[6] = Cytotoxicity, neutral red uptake assay on BGM cells; format: cell-based; settings: BGM monkey kidney cells
Method: The BGM cells were incubated with 20 µL of the drugs at different concentrations (≤1000 µg/mL) for 24 h in a 5% CO2 at 37 °C. The neutral red uptake assay was used to evaluate the lysosomal integrity and distinguishes live cells from dead by its ability to incorporate the dye. Briefly, to each well was added 0.2 mL medium containing 50 µg/mL of neutral red solution. The plate was incubated for another 3 h at 37 °C to allow for the uptake of the vital dye into the lysosomes of viable uninjured cells. After removal of medium, 200 µL of a mixture of 0.5% formaldehyde-1% CaCl2 was added to the cells and incubated by 5 min. The supernatant was removed and 100 µL of a solution of 1% acetic acid-50% ethanol was added to each well to extract the dye. After homogenization, the optical density of each well of the plate was measured using a 540 nm wavelength on a spectrophotometer. This absorbance has shown a linear relationship with the number of surviving cells. The cell viability was expressed as the percentage of control absorbance obtained from the untreated cells after subtracting the appropriate background.

Plasmodium = tested on: Plasmodium; parameters: method as in doi:10.1016/j.tetlet.2016.11.071; settings: read-out: IC50 anti-plasmodial activity; cited from earlier work
[7] = P. falciparum W2 clone, 48 h, SYBR
[8] = Plasmodium falciparum, W2, 48 h, P. falciparum W2 clone, 48 h, SYBR, read-out: IC50

| Compound | Status [1] | IC50 [1] | Status [3] | IC50 [3] | CC50 at 96 h [4] | IC50 [5, 8] | also measured |
| --- | --- | --- | --- | --- | --- | --- | --- |
| O=C1C(c2ccc(F)cc2)N(c2ccccc2)C(=O)CN1c1ccc(Cl)cc1 (centres unmarked) [Compound 11] | inactive | 38.2 ± 1.8 µg/mL (≈ 96.7 µM) | – | – | – | – | – |
| O=C1C(c2ccc(O)cc2)N(c2ccccc2)C(=O)CN1c1ccc(Cl)cc1 (centres unmarked) [Compound 14] | ACTIVE | 8.3 ± 0.2 µg/mL (≈ 21.1 µM) | – | – | – | – | CC50 at 72 h [2]: 611 ± 1 µg/mL (≈ 1560 µM) |
| CN(C)c1ccc(C2C(=O)N(c3ccc(Cl)cc3)CC(=O)N2c2ccccc2)cc1 (centres unmarked) [Compound 3] | inactive | 49.1 ± 1.6 µg/mL (≈ 117 µM) | – | – | – | – | – |
| COc1ccc(OC)c(C2C(=O)N(c3ccc(Cl)cc3)CC(=O)N2c2ccccc2)c1 (centres unmarked) [Compound 9] | inactive | 50.8 ± 1.1 µg/mL (≈ 116 µM) | – | – | – | – | – |
| O=C1C(c2c(F)cccc2Cl)N(c2ccccc2)C(=O)CN1c1ccc(Cl)cc1 (centres unmarked) [Compound 22] | – | – | ACTIVE | 7.2 ± 0.9 µg/mL (≈ 16.8 µM) | > 400 µg/mL | – | – |
| O=C1C(c2ccccc2F)N(c2ccc(Br)cc2)C(=O)CN1c1ccc(Cl)cc1 (centres unmarked) [Compound 19] | – | – | – | – | – | < 10 µg/mL | IC50 [5, 7]: 5.4 ± 1.7 µg/mL; Status [5]: ACTIVE; IC50 ([5]; Plasmodium falciparum, W2, P. falciparum, corresponds to 5.4 µg/mL, read-out: IC50 (converted to µM)): 12.6 µM; CC50 at 24 h [6]: 110 ± 11.3 µg/mL (≈ 232 µM) |
| C[C@@H]1[C@H](O)[C@@H](C)/C=C/C=C/C=C/C=C/C=C/C=C/C=C/[C@H](O[C@@H]2O[C@H](C)[C@@H](O)[C@H](N)[C@@H]2O)C[C@@H]2O[C@](O)(C[C@@H](O)C[C@@H](O)[C@H](O)CC[C@@H](O)C[C@@H](O)CC(=O)O[C@H]1C)C[C@H](O)[C@H]2C(=O)O [Amphotericin B, reference compound] | – | 0.228 ± 0.025 µg/mL (≈ 0.247 µM) | – | – | – | – | CC50 at 72 h [2]: 367 ± 1 µg/mL (≈ 397 µM) |
| COc1ccc(N2CC(=O)N(c3ccc(OC)cc3)C(c3ccccc3)C2=O)cc1 (centres unmarked) [Compound 13] | – | – | inactive | 22.3 ± 1.1 µg/mL (≈ 55.4 µM) | – | – | – |
| CCN(CC)CCCC(C)Nc1ccnc2cc(Cl)ccc12 (centres unmarked) [Chloroquine, reference compound] | – | – | – | – | – | – | IC50 ([5]; Plasmodium falciparum, W2, 48 h): 0.174 ± 0.055 µg/mL |
| O=C1C(c2ccccc2F)N(c2ccccc2)C(=O)CN1c1ccc(Cl)cc1 (centres unmarked) [Compound 5] | – | – | toxic (selectivity index = CC50/IC50, values < 10 are considered toxic) | 9.3 ± 0.1 µg/mL (≈ 23.6 µM) | 29.2 µg/mL (≈ 74 µM) | 15.6 ± 2.6 µg/mL | CC50 at 24 h [6]: ≤ 3.1 µg/mL |
| COc1ccc(C2C(=O)N(c3ccc(Cl)cc3)CC(=O)N2c2ccccc2)cc1Br (centres unmarked) [Compound 8] | – | – | ACTIVE | 7.3 ± 1.5 µg/mL (≈ 15 µM) | > 400 µg/mL | – | – |
| O=C1C(c2ccc(O)c(Br)c2)N(c2ccccc2)C(=O)CN1c1ccc(Cl)cc1 (centres unmarked) [Compound 15] | – | – | toxic (selectivity index = CC50/IC50, values < 10 are considered toxic) | 11.2 ± 6 µg/mL (≈ 23.7 µM) | 81.8 µg/mL (≈ 173 µM) | 14.9 ± 0.7 µg/mL | Status [5]: toxic (selectivity index = CC50/IC50, values < 10 are considered toxic); CC50 at 24 h [6]: 18.5 ± 3.4 µg/mL (≈ 39.2 µM) |
| Naseseazine C | – | – | – | – | – | – | IC50 (Plasmodium): 3.5 µM |
| O=C1C(c2ccc(Cl)cc2)N(c2ccccc2)C(=O)CN1c1ccc(Cl)cc1 (centres unmarked) [Compound 4] | inactive | 35.7 ± 0.8 µg/mL (≈ 86.8 µM) | – | – | – | – | – |
| O=C1C(c2ccc(Cl)cc2)N(c2ccc(F)cc2)C(=O)CN1c1ccc(Cl)cc1 (centres unmarked) [Compound 21] | – | – | toxic (selectivity index = CC50/IC50, values < 10 are considered toxic) | 16.1 ± 2 µg/mL (≈ 37.5 µM) | 16.8 µg/mL (≈ 39.1 µM) | ≥ 50 µg/mL | Status [5]: inactive |
| O=C1C(c2ccccc2F)N(c2ccc(F)cc2)C(=O)CN1c1ccc(Cl)cc1 (centres unmarked) [Compound 20] | – | – | toxic (selectivity index = CC50/IC50, values < 10 are considered toxic) | 15.4 ± 3 µg/mL (≈ 37.3 µM) | 32.1 µg/mL (≈ 77.8 µM) | 17.6 ± 1.3 µg/mL | CC50 at 24 h [6]: 9.4 ± 5.1 µg/mL (≈ 22.8 µM) |
| O=C1C(c2cccc(Cl)c2)N(c2ccccc2)C(=O)CN1c1ccc(Cl)cc1 (centres unmarked) [Compound 10] | – | – | – | – | – | 28.1 ± 0.3 µg/mL | Status [5]: inactive |
| O=C(Cn1ccnc1[N+](=O)[O-])NCc1ccccc1 [Benznidazole, reference compound] | – | – | – | 0.5 ± 0.1 µg/mL (≈ 1.92 µM) | 540 µg/mL (≈ 2070 µM) | – | – |
| CC(=O)Nc1ccc(C2C(=O)N(c3ccc(Cl)cc3)CC(=O)N2c2ccccc2)cc1 (centres unmarked) [Compound 7] | part. ACTIVE (20 > IC50 > 10 µg/mL partially active) | 16 ± 1 µg/mL (≈ 36.9 µM) | – | – | – | – | CC50 at 72 h [2]: 679 ± 1 µg/mL (≈ 1560 µM) |
| CCc1ccc(C2C(=O)N(c3ccc(Cl)cc3)CC(=O)N2c2ccccc2)cc1 (centres unmarked) [Compound 2] | inactive | > 100 µg/mL | – | – | – | – | – |
| O=C1C(c2ccccc2F)N(c2ccc(Cl)cc2)C(=O)CN1c1ccc(Cl)cc1 (centres unmarked) [Compound 17] | – | – | – | – | – | < 10 µg/mL | IC50 [5, 7]: 9.5 ± 2.1 µg/mL; Status [5]: ACTIVE; CC50 at 24 h [6]: 139 ± 18.7 µg/mL (≈ 323 µM) |
